The source of these data is PubChem BioAssay AID720547 (The Scripps Research Institute Molecular Screening Center, 2013).

Each structure is given as a SMILES string. Several values for one entry are separate records, joined by “and”; a condition that tells them apart may be missing. Equal values may be shown once. Activity calls are given as the source filed them.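 Rule for the calls: active = compound flagged as a likely artifact in this counterscreen, with IC50 of 10 µM or lower; inactive = IC50 above 10 µM.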 Where only a bound is given, the exact number is not on record here.

In this assay the test system is HEK293 Gal4-VP16 luciferase reporter counterscreen, luminescence. Briefly: VP16-driven transactivation reporter suppression potency – cell-based, luminescence, HEK293, counter-screen for COUP-TFII inhibitor project, dose response (AID 720547).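 Note: potency for lowering the luciferase signal driven by Gal4-VP16.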 For orientation: The purpose of a counterscreen is to sort out artefacts and off-target activity.

One may read the IC50 as the midpoint of a concentration-inhibition curve. With `CN(C)c1cc[n+](CC(=O)c2ccc(-c3ccccc3)cc2)cc1`, the IC50 is > 85.4 µM (inactive).

`Oc1ccc(CCNc2ncnc3ccc(Cl)cc23)cc1`: the IC50 is > 85.4 µM (inactive).

With `NC(=O)c1ccsc1NC(=O)COC(=O)Cc1cccc2ccccc12`, the IC50 is > 85.4 µM (inactive).

Turning to `CC(=O)c1cccc(NS(=O)(=O)c2ccc(-c3cnc(C4CC4)o3)cc2)c1`, the IC50 is > 85.4 µM (inactive).

`CCOC(=O)c1c(C)[nH]c(C(=O)OCC(=O)Nc2sccc2C(N)=O)c1C`: the IC50 is 29.8 µM (inactive).

For `CCOC(=O)c1cnc(-n2nc(C)cc2C)nc1NC1CCCC1`, the IC50 was 50.3 µM (inactive).

For the compound `CCC(C)NC(=O)CCC(=O)OC1O[C@H]2OC3(C)CC[C@H]4[C@H](C)CCC(C1C)C24OO3` (stereo partly drawn), the IC50 was > 85.4 µM (inactive).

In the case of `c1ccc(CNc2ncnc3ccccc23)cc1`, the IC50 is > 85.4 µM (inactive) and > 85.3 µM (inactive).

With `CC(C)CNc1ncnc2c1ncn2[C@H]1CN(Cc2ccc(-c3ccccc3)cc2)C[C@@H](CO)O1`, the IC50 is 61.9 µM (inactive).

As to `CC(C)(C)c1ccc(CSc2cnn(C(C)(C)C)c(=O)c2Cl)cc1`, the IC50 is > 85.4 µM (inactive).

With `NC(=O)c1nnn(Cc2cc(Cl)c(C(=O)c3ccc(Cl)cc3)c(Cl)c2)c1N`, the IC50 was > 85.4 µM (inactive).

Regarding `O=C(/C=C/c1ccc([N+](=O)[O-])cc1)c1ccccc(=O)c1O`, the IC50 was 13.2 µM (inactive).

As to `O=C(Nc1ccncc1)c1ccc(Cl)c(S(=O)(=O)N2CCc3ccccc32)c1`, the IC50 was 60.6 µM (inactive).

Turning to `CC1Cc2cc(-c3csc(NC(=O)Cc4cccs4)n3)ccc2N1S(C)(=O)=O` (stereo not drawn), the IC50 was 30.5 µM (inactive).

Regarding `CC[C@@H](O)C[C@H]1CCC[C@@]2(C[C@@H]3OC(=O)/C=C/[C@@](C)(O)[C@@H](O)[C@H](C)[C@@H](O)[C@H](OC4CCC(N(C)C)C(C)O4)[C@@H](O)[C@](C)(O)CCCCC/C=C/[C@@H]4CC(C)(C)O[C@@]4(O)C[C@H](O2)[C@H]3C)O1` (stereo partly drawn), the IC50 is 37 µM (inactive).

`COc1ccc(CNc2ncnc3ccccc23)cc1`: the IC50 is > 85.4 µM (inactive).

Consider `N=c1c2c(n(Cc3ccc(Cl)cc3)c3c1CCC3)CCC2`, for which the IC50 is 89 µM (inactive).

As to `Cc1sc2ncnc(NCCc3ccc(S(N)(=O)=O)cc3)c2c1C`, the IC50 was > 85.4 µM (inactive).

Turning to `O=C(CSc1nnc(-c2cccnc2)s1)Nc1ccnc2ccccc12`, the IC50 is > 85.4 µM (inactive).

In the case of `C[C@@H]1C[C@@H]([C@H](O)CC2CC(=O)NC(=O)C2)C(=O)[C@@H](C)C1`, the IC50 is > 85.4 µM (inactive).

For `Cc1cccc2cc(-c3ccccc3)c(-c3ccccc3)c[n+]12`, the IC50 is > 85.4 µM (inactive).

In the case of `C=CCC1(CC=C)CCCN1C(=O)c1cc(COc2ccc(-n3cncn3)cc2)on1`, the IC50 is > 85.4 µM (inactive).

Take `NC(=S)NN=C1c2cc(OCCN3CCOCC3)ccc2-c2ccc(OCCN3CCOCC3)cc21`: the IC50 is 12 µM (inactive).

As to `Cc1ccc(-n2nc3c(=O)n(C(C)C(=O)NCc4ccccc4Cl)nc(C)c3c2C)cc1` (stereo not drawn), the IC50 was 81.8 µM (inactive).

Turning to `COc1ccccc1-n1c(-c2ccccc2)c[n+]2c1CCc1ccccc1-2`, the IC50 is > 85.4 µM (inactive).

For `O=c1[nH]c(O)c(N=Nc2ccc3c(c2)OCCO3)c(=O)[nH]1`, the IC50 is 40.4 µM (inactive).

Regarding `Clc1ccc(OCCN2CCN(c3ncnc4sccc34)CC2)cc1`, the IC50 is > 85.5 µM (inactive).

As to `C/C(=N\NC(N)=S)C1C2C3CC4C5CC(C42)C1C53` (stereo not drawn), the IC50 is > 85.4 µM (inactive).

As to `Cc1nn(C)c(C)c1CN(Cc1nc(CCC(C)C)no1)C(C)C`, the IC50 was > 85.4 µM (inactive).

Consider `CCCCCCn1ccc(=N)cc1`, for which the IC50 was > 85.4 µM (inactive).

`CC1CC(C)(O)CC(C(O)CC2CC(=O)NC(=O)C2)C1=O` (stereo not drawn): the IC50 is > 85.3 µM (inactive).

`O=C(NCC(c1ccco1)N1CCCC1)c1ccc(Cl)c(S(=O)(=O)N2CCc3ccccc32)c1` (stereo not drawn): the IC50 is > 28.5 µM (inactive).

For the compound `CC(=O)c1c(C)[nH]c(C(=O)COc2cc(C)ccc2C(C)C)c1C`, the IC50 was > 85.4 µM (inactive).

With `CSc1ccccc1OCc1cc(C(=O)N2CCC(c3ccncc3)CC2)no1`, the IC50 was > 85.4 µM (inactive).

Take `OC[C@@H]1CN(Cc2ccc(-c3ccccc3)cc2)C[C@H](n2cnc3c(NCc4ccncc4)ncnc32)O1`: the IC50 was 59.3 µM (inactive).

For the compound `COC(=O)c1ccc2nc(Nc3nc4ccc(F)cc4s3)sc2c1`, the IC50 is > 85.4 µM (inactive).

On to `Cc1cc(N2CCN(c3nc4ccccc4s3)CC2)n2ncnc2n1`, for which the IC50 is > 85.4 µM (inactive).

With `Cc1[nH]nc(C(F)(F)F)c1N=NN1CCOCC1`, the IC50 was 51.6 µM (inactive).

Consider `CC(=O)c1c(C)[nH]c(C(=O)OCCCCN2C(=O)c3ccccc3C2=O)c1C`, for which the IC50 is 63.7 µM (inactive).

As to `Cc1nn(C)c(C)c1/C=C/C(=O)c1ccc(Cl)cc1Cl`, the IC50 is > 85.4 µM (inactive).

With `O=C(NC1CCCCCCC1)c1cc(COc2ccc3ncccc3c2)on1`, the IC50 is > 85.4 µM (inactive).

`Cn1c2ccccc2c(=O)c2cc(C#CC3(O)CCCCC3)ccc21`: the IC50 is > 85.4 µM (inactive).

On to `S=C(NCCc1ccccc1)Nc1cccc2cnccc12`, for which the IC50 was > 85.4 µM (inactive).

For `CCOc1cccc(/C=N/NC(=S)Nc2ccccc2[N+](=O)[O-])c1O`, the IC50 is 20.4 µM (inactive).

For `O=C(Cc1ccc(Cl)cc1Cl)Nc1ccncc1Cl`, the IC50 is > 85.4 µM (inactive).

With `Cc1cc(C(=O)NC2CCCc3c2cnn3-c2ccc(C(C)(C)C)cc2)nn1C` (stereo not drawn), the IC50 is > 85.4 µM (inactive).

For the compound `COc1ccc2c(c1)[nH]c1c(N3CCN(Cc4ccc5c(c4)OCO5)CC3)ncnc12`, the IC50 is 39.6 µM (inactive).

For the compound `COc1ccc(NC(=O)COc2ccc(N(C)S(=O)(=O)c3ccc(Cl)cc3)cc2)cc1OC`, the IC50 was > 85.4 µM (inactive).

As to `CCN=c1scc(-c2ccc3c(c2)NC(=O)CO3)n1N=C1CCCC1`, the IC50 is > 85.4 µM (inactive).

`Cn1nc(C(C)(C)C)cc1C(=O)NCc1cc(F)cc2c1OCOC2`: the IC50 is > 85.4 µM (inactive).

Consider `CC(Nc1ncnc2ccccc12)c1ccccc1` (stereo not drawn), for which the IC50 was > 85.5 µM (inactive).

For `CC(=O)N[C@@H](C)c1nc2ccccc2n1CCCN1CCN(c2nc(-c3ccc(C)cc3)cs2)CC1`, the IC50 is 57 µM (inactive).

As to `CCc1cc(C(=O)NC2CCCc3c2cnn3-c2cccc(C)c2C)n(C)n1` (stereo not drawn), the IC50 was > 85.4 µM (inactive).

On to `CCOCCCNC(=S)N1CCN(c2nc(-c3ccc(F)cc3)cs2)CC1`, for which the IC50 was 45.1 µM (inactive).

For the compound `CC(C)c1ccc(CN2CCN(C(=O)CSc3nnnn3C3CC3)CC2)cc1`, the IC50 is > 85.4 µM (inactive).

Consider `Cc1nnsc1NC(=O)OCc1ccc(C(C)(C)C)cc1`, for which the IC50 was > 85.4 µM (inactive).

`CC[n+]1c(C=C2C=C(C)OC(C)=C2)sc2ccccc21`: the IC50 is > 85.4 µM (inactive).

As for `COc1ccc(-n2nnnc2C(c2cc3ccccc3o2)N2CCC(n3c(=O)[nH]c4ccccc43)CC2)cc1` (stereo not drawn), the IC50 is 12.7 µM (inactive).

`CC1Cc2cc(-c3csc(NC(=O)Cc4ccccc4)n3)ccc2N1S(C)(=O)=O` (stereo not drawn): the IC50 was > 85.4 µM (inactive).

On to `Cc1ccnc(Nc2nc(-c3sc(C)nc3C)cs2)c1`, for which the IC50 is > 85.3 µM (inactive).

Take `CN(CC1CCCO1)S(=O)(=O)c1ccc(C(=O)Nc2nc3cc4c(cc3s2)OCO4)cc1` (stereo not drawn): the IC50 is > 85.4 µM (inactive).

Consider `Nc1nc2ccccc2cc1C(=O)NCc1ccc(-c2ccccc2)cc1`, for which the IC50 is > 85.3 µM (inactive).

For `Cc1ccc(OCCN2CCN(c3ncnc4sc(C)c(C)c34)CC2)cc1`, the IC50 is > 85.4 µM (inactive).

Take `Cc1ccc(-n2nc3c(=O)n(C(C)C(=O)NCCCc4ccccc4)nc(C)c3c2C)cc1` (stereo not drawn): the IC50 is > 85.4 µM (inactive).

For `Cc1nc2c(-c3ccccc3)cnn2c(N)c1-c1ccccc1`, the IC50 was 59.7 µM (inactive).

For the compound `COc1cc2c(cc1OC)C1C(=O)c3ccc4c(c3OC1CO2)CC(C(C)C)O4` (stereo not drawn), the IC50 was > 28.5 µM (inactive).

With `COc1ccc(NS(=O)(=O)c2ccc(-c3coc(C)n3)cc2)cc1OC`, the IC50 is > 85.4 µM (inactive).

Consider `Cc1c(C(=O)N2CCN(Cc3ccc4c(c3)OCO4)CC2)sc2ncnc(N3CCN(c4ccccc4F)CC3)c12`, for which the IC50 was 62.7 µM (inactive).

In the case of `N#CC(C#N)=C(Nc1ccc(F)cc1)SCc1cccc(Br)c1`, the IC50 is > 85.4 µM (inactive).

For `CCN(CC)C(=O)c1oc2ccc(S(=O)(=O)N3CC(C)CC(C)C3)cc2c1C` (stereo not drawn), the IC50 is 72.3 µM (inactive).

With `CCCCCCn1c2c(c(=N)c3c1CCC3)CCC2`, the IC50 was > 85.4 µM (inactive).

As to `Cc1ccccc1Cn1c(C)nc2ccccc21`, the IC50 is > 85.4 µM (inactive).

For the compound `COc1ccc(NS(=O)(=O)c2cccc(NC(=O)c3ccc(Cl)nc3)c2)cc1`, the IC50 is 73.5 µM (inactive).

Take `c1ccc2c(c1)CCN(c1ncnc3c1[nH]c1ccccc13)C2`: the IC50 was 53.8 µM (inactive).

Consider `Cc1cc(C)c(S(=O)(=O)NCc2ccncc2)c(C)c1`, for which the IC50 was > 85.4 µM (inactive).

Turning to `CCNc1nc(-c2sc(NC(=O)C(C)(C)C)nc2C)c(-n2cc(-c3ccccc3)nn2)s1`, the IC50 is 21.1 µM (inactive).

As for `Cc1oc(-c2ccc(Cl)cc2)nc1CS(=O)CC(=O)NCCCN1CCN(Cc2ccccc2)CC1` (stereo not drawn), the IC50 was > 28.5 µM (inactive).

For `O=C1N(c2ccccc2)C[C@@H]2C[C@@H](c3cc4ccccc4o3)N3CCC[C@@]123`, the IC50 was > 85.4 µM (inactive).

As for `COc1ccc(-n2cc(-c3ccc(C)cc3)[n+]3c2SCC3)cc1`, the IC50 was > 85.4 µM (inactive).

Turning to `Cc1cccc(Cl)c1NC(=O)N1CCCN(c2nc3ccc(Cl)cc3s2)CC1`, the IC50 was > 85.4 µM (inactive).

`CCOC(=O)N1CCC(Nc2ncnc3c2cnn3-c2ccc(C)cc2C)CC1`: the IC50 is > 85.4 µM (inactive).

As for `Fc1ccc2[nH]c3c(N4CCc5ccccc5C4)ncnc3c2c1`, the IC50 was 77.5 µM (inactive).

As to `O=C(CSc1nnc(Cn2nnc3ccccc32)o1)N(Cc1ccc(F)cc1)c1ccccc1`, the IC50 is > 85.4 µM (inactive).
